Measured values: US6299910A, “Methods for identification, purification, and manufacturing of the active constituent in Salvia-miltiorrhiza (dansheng) and the application of this product in enhancing cardiovascular functions” (Techical Sourcing International, Inc., priority 2000, dated 2001)

Legend:
rats [1] = test: Effect of Dansheng components on rats under hypoxia condition (Table V); format: in vivo; set-up: key to Effect (rats under hypoxia condition): -: not effective; +: effective; ++: very effective; conditions: 100 mg/kg dose
[2] = tested on: Red blood cell lysis by H2O2; test: Effect of Dansheng components on red blood cell lysis by H2O2 (Table IV); format: cell-based; set-up: key to Effect (red blood cell lysis by H2O2): -: not effective; +: effective; ++: very effective; conditions: 0.33 mg/ml; for inhibition at 330 µg/mL: Erythrocyte, read-out: Degree of Inhibition (red blood cell lysis by H2O2)
Experimental: These compounds were prepared at 0.33 mg/ml.

Platelet aggregation [3] = test: Effect of Dansheng components on platelet anti-aggregation, in vitro (Table VI); format: cell-based; set-up: key to Effect (platelet anti-aggregation): -: not effective; +: effective; ++: very effective; conditions: for platelet anti-aggregation potency, in words: Tables II and VI
rats [4] = test: Life extension / endurance under hypoxia condition (Table III); format: in vivo; conditions: for extended rats life (up to): hypoxia, dose not given
Experimental: (§1) The other seven compounds are evaluated based on: [1] Their anti-oxidant activity, [2] Anti-platelet aggregation, and [3] Endurance under hypoxia conditions.
Compounds 6 and 8 effectively extended rats life up to 78% Other compounds are comparatively lower in this category (see Tables III and V below).

[5] = Overall bioactivity in three categories: platelet anti-aggregation, life extension under hypoxia, anti-oxidation; conditions: anti-oxidation (liver cell protection)
Experimental: as §1

animal = conditions: Chen et al., 1980; cited from earlier work
Platelet aggregation [6] = test: Platelet anti-aggregation effect of Magnesium Salvianolate B and its derivatives, in vitro (Table II); format: cell-based; conditions: 900 mcg/ml
Liver cell = test: Effect on liver cell MDA amount induced by carbon tetrachloride (antioxidant activity, liver cell protection; Table I); format: cell-based; conditions: 0.5 micro mole/ml
Text: Table I: Effect of Dansheng Constituents on Liver Cell MDA (Molonyldialdehyde) Amount Induced by Carbon Tetrachloride

Compound	Effect (rats under hypoxia condition) (rats [1])	Life Expanded (rats [1]) [%]	Effect (red blood cell lysis by H2O2) [2]	inhibition at 330 µg/mL [2] [%]	inhibition at 180 µg/mL (Platelet aggregation [3]; Platelet, 180 mcg/ml, in vitro) [%]	% Inhibition (platelet anti-aggregation) (Platelet aggregation [3]; 900 mcg/ml, in vitro) [%]	animal endurance capacity under hypoxia conditions, in words (animal)	other results
O=C(/C=C/c1ccc(O)c2c1C(C(=O)O)C(c1ccc(O)c(O)c1)O2)OC(Cc1ccc(O)c(O)c1)C(=O)O (stereo not shown) [Compound 3, Dipotassium Lithospermate]	+	23	++	100	0			inhibition at 900 µg/mL (Platelet aggregation [3]; Platelet, 900 mcg/ml, in vitro): 18%
Magnesium Isosalvianolate B [Compound 8]	++	69	++			20		Degree of Inhibition (red blood cell lysis by H2O2) [2]: 100%; % Inhibition (platelet anti-aggregation) (Platelet aggregation [3]; 180 mcg/ml, in vitro): 0%; extended rats life (up to) (rats [4]): up to 78%
O=C(O)C(O)Cc1ccc(O)c(O)c1 (stereo not shown) [Compound 1, Potassium 3' 4-dihydroxyphenyllactate]			++	100	0			inhibition at 900 µg/mL (Platelet aggregation [3]; Platelet, 900 mcg/ml, in vitro): 0%; bioactivity level, in words [5]: lowest bio-activity level
O=C(/C=C/c1ccc(O)c2c1C(C(=O)OC(Cc1ccc(O)c(O)c1)C(=O)O)C(c1ccc(O)c(O)c1)O2)OC(Cc1ccc(O)c(O)c1)C(=O)O (stereo not shown) [Compound 5, Dipotassium Salvianolate B]			++	100	0	44		Effect (platelet anti-aggregation) (Platelet aggregation [3]; 900 mcg/ml, in vitro): +
O=C(O)C(O)Cc1ccc(O)c(O)c1 (stereo not shown) [Danshensu, 3',4 phenyllatic Acid]							increase animal endurance capacity under hypoxia conditions	
O=C(/C=C/c1ccc(O)c(O)c1)O[C@H](Cc1ccc(O)c(O)c1)C(=O)O [Compound 2, Sodium Rosmarinate]	++	42	++	100	0			inhibition at 900 µg/mL (Platelet aggregation [3]; Platelet, 900 mcg/ml, in vitro): 13%
O=C(/C=C/c1ccc(O)c2c1C(C(=O)OC(Cc1ccc(O)c(O)c1)C(=O)O)C(c1ccc(O)c(O)c1)O2)OC(Cc1ccc(O)c(O)c1)C(=O)O (stereo not shown) [Compound 6, Magnesium Salvianolate B]	++	65	++			74		inhibition at 900 µg/mL (Platelet aggregation [6]): 94%; Degree of Inhibition (red blood cell lysis by H2O2) [2]: 100%; % Inhibition (platelet anti-aggregation) (Platelet aggregation [3]; 180 mcg/ml, in vitro): 0%; Effect (platelet anti-aggregation) (Platelet aggregation [3]; 900 mcg/ml, in vitro): +; inhibition at 450 µg/mL (Platelet aggregation [3]; Platelet, 450 mcg/ml, in vitro): 15%; platelet anti-aggregation potency, in words (Platelet aggregation [3]): highest potency; platelet anti-aggregation potency, in words (Platelet aggregation [3]; listed as MSV): most potent; bioactivity level, in words [5]: highest bioactivity level; bioactivity level, in words ([5]; listed as Magnesium Salvianolate B): most biologically effective compound; % Life Extension (rats [4]; hypoxia condition, 200 mg/kg dose): 78%; extended rats life (up to) (rats [4]): up to 78%; secretion of MDA from liver cell, in words (Liver cell): decreases the secretion of MDA from liver cell
O=C(/C=C/c1ccc(O)c2c1C(C(=O)O)C(c1ccc(O)c(O)c1)O2)OC(Cc1ccc(O)c(O)c1)C(=O)O (stereo not shown) [Compound 4, Magnesium Lithospermate]	+	45	++			28		Degree of Inhibition (red blood cell lysis by H2O2) [2]: 100%; % Inhibition (platelet anti-aggregation) (Platelet aggregation [3]; 180 mcg/ml, in vitro): 0%
O=C(/C=C/c1ccc(O)c(O)c1/C=C/c1ccc(O)c(O)c1)OC(Cc1ccc(O)c(O)c1)C(=O)O (stereo not shown) [Salvianolic Acid A]							increase animal endurance capacity under hypoxia conditions	
O=C(/C=C/c1ccc(O)c2c1[C@H](C(=O)O[C@H](Cc1ccc(O)c(O)c1)C(=O)O)[C@@H](c1ccc(O)c(O)c1)O2)O[C@H](Cc1ccc(O)c(O)c1)C(=O)O [Salvianolic Acid B]							increase animal endurance capacity under hypoxia conditions	
O=Cc1ccc(O)c(O)c1 [Protocatechualdehydes, Protocatechualdehyde]							increase animal endurance capacity under hypoxia conditions	
